Usually pIC50 stands for the IC50 on a negative log10 scale, so that one unit is a factor of ten.

pIC50: −log10 of the molar value.

The first assay deals with T1, PD-1/PD-L1 protein/protein interaction (Homo sapiens, UniProt Q9NZQ7).
T1 construct: Recombinant human PD-L1 protein (19-238) with a His-tag at the C-terminus; purchased AcroBiosystems PD1-H5229 (PD-L1); PD1-H5257 (PD-1)
T1 sequence (Q9NZQ7 19-238): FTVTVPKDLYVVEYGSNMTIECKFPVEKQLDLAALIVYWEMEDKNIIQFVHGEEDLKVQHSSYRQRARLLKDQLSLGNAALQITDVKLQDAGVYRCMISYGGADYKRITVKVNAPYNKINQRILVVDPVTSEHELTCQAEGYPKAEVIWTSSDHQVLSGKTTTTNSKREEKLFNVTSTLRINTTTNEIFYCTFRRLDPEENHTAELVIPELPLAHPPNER
The experiment in a line: PD-1/PD-L1 homogenous time-resolved fluorescence (HTRF) binding assay.
Conditions: not given
The method, then: Resolved Fluorescence (HTRF) Binding Assay
The assays were conducted in a standard black 384-well polystyrene plate with a final volume of […]. Inhibitors were first serially diluted in DMSO and then added to the plate wells before the addition of other reaction components. The final concentration of DMSO in the assay was 1%. The assays were carried out at 25° C. in the PBS buffer (pH 7.4) with 0.05% Tween-20 and 0.1% BSA. […] Plates were centrifuged and proteins were preincubated with inhibitors for 40 min. The incubation was followed by the addition of 10 μL of HTRF detection buffer supplemented with Europium cryptate-labeled anti-human IgG (PerkinElmer-AD0212) specific for Fc and anti-His antibody conjugated to SureLight®—Allophycocyanin (APC, PerkinElmer-AD0059H). After centrifugation, the plate was incubated at 25° C. for 60 min. […] Final concentrations in the assay were […] PD1, 10 nM PD-L1, 1 nM europium anti-human IgG and 20 nM anti-His-Allophycocyanin. IC50 determination was performed by fitting the curve of percent control activity versus the log of the inhibitor concentration using the GraphPad Prism 5.0 software.
As to `Cc1c(COCCN2CCOCC2)cccc1-c1cccc(Nc2nccc3cc(CN4CCCCC4C(=O)O)cnc23)c1C` (stereo not shown) [Compound 47, 1-((8-((2,2′-dimethyl-3′-((2-morpholinoethoxy)methyl)-[1,1′-biphenyl]-3-yl)amino)-1,7-naphthyridin-3-yl)methyl)piperidine-2-carboxylic acid], the pIC50 is above 8.70.

For `Cc1c(Nc2nccc3cc(CN4CCCCC4C(=O)O)cnc23)cccc1-c1ccc2cc(CCN3CCOCC3)[nH]c2c1` (stereo not shown) [Compound 35, 1-((8-((2-methyl-3-(2-(2-morpholinoethyl)-1H-indol-6-yl)phenyl)amino)-1,7-naphthyridin-3-yl)methyl)piperidine-2-carboxylic acid], the negative-log IC50 (pIC50) is below 6.82.

`Cc1c(Nc2nccc3cc(CN4CCCCC4C(=O)O)cnc23)cccc1-c1cccc(OCCN2CCOCC2)c1C` (stereo not shown) [Compound 31, 1-((8-((2,2′-dimethyl-3′-(2-morpholinoethoxy)-[1,1′-biphenyl]-3-yl)amino)-1,7-naphthyridin-3-yl)methyl)piperidine-2-carboxylic acid] showed a pIC50 of 6.82 to 8.00.

`Cc1c(Nc2nccc3cc(CNC(C)(CO)C(=O)O)cnc23)cccc1-c1cccc(OCCCN2CCOCC2)c1C` (stereo not shown) [Compound 13, 2-(((8-((2,2′-dimethyl-3′-(3-morpholinopropoxy)-[1,1′-biphenyl]-3-yl)amino)-1,7-naphthyridin-3-yl)methyl)amino)-3-hydroxy-2-methylpropanoic acid]: the pIC50 was above 8.70.

`Cc1c(Nc2nccc3cc(CN4CCCCC4C(=O)O)cnc23)cccc1-c1cccc2c1CCC2OCCN1CCOCC1` (stereo not shown) [Compound 56, 1-((8-((2-methyl-3-(1-(2-morpholinoethoxy)-2,3-dihydro-1H-inden-4-yl)phenyl)amino)-1,7-naphthyridin-3-yl)methyl)piperidine-2-carboxylic acid] gave a pIC50 below 6.82.

For `Cc1c(Nc2nccc3cc(CN4CC(F)(F)CC4C(=O)O)cnc23)cccc1-c1cccc(OCCCN2CCOCC2)c1C` (stereo not shown) [Compound 12, 1-((8-((2,2′-dimethyl-3′-(3-morpholinopropoxy)-[1,1′-biphenyl]-3-yl)amino)-1,7-naphthyridin-3-yl)methyl)-4,4-difluoropyrrolidine-2-carboxylic acid], the pIC50 is 6.82 to 8.00.

For the compound `Cc1c(Nc2nccc3cc(CN4CCCCC4C(=O)O)cnc23)cccc1-c1cccc(OCCCN2CCOCC2)c1C` (stereo not shown) [Compound 5], the pIC50 was 8.48.

Compound `Cc1c(Nc2nccc3cc(CN4CCCCC4C(=O)O)cnc23)cccc1-c1cccc(OCCCNCC(=O)O)c1C` (stereo not shown) [Compound 28, 1-((8-((3′-(3-((carboxymethyl)amino)propoxy)-2,2′-dimethyl-[1,1′-biphenyl]-3-yl)amino)-1,7-naphthyridin-3-yl)methyl)piperidine-2-carboxylic acid] had a pIC50 above 8.70.

`Cc1c(Nc2nccc3cc(CN4CCCCC4C(=O)O)cnc23)cccc1-c1ccc(F)c(OCCCN2CCOCC2)c1` (stereo not shown) [Compound 40, 1-((8-((4′-fluoro-2-methyl-3′-(3-morpholinopropoxy)-[1,1′-biphenyl]-3-yl)amino)-1,7-naphthyridin-3-yl)methyl)piperidine-2-carboxylic acid] had a negative logarithm of the IC50 (pIC50) of 8.00 to 8.70.

`CCN(CC(=O)O)Cc1cnc2c(Nc3cccc(-c4cccc(OCCCN5CCOCC5)c4C)c3C)nccc2c1` [Compound 14, N-((8-((2,2′-dimethyl-3′-(3-morpholinopropoxy)-[1,1′-biphenyl]-3-yl)amino)-1,7-naphthyridin-3-yl)methyl)-N-ethylglycine] showed a pIC50 above 8.70.

`COc1ccc(-c2cccc(Nc3nccc4cc(CN5CCCCC5C(=O)O)cnc34)c2C)cc1OCCCN1CCOCC1` (stereo not shown) [Compound 59, 1-((8-((4′-methoxy-2-methyl-3′-(3-morpholinopropoxy)-[1,1′-biphenyl]-3-yl)amino)-1,7-naphthyridin-3-yl)methyl)piperidine-2-carboxylic acid] showed a pIC50 of 8.00 to 8.70.

Compound `Cc1c(Nc2nccc3cc(CN4CCCCC4C(=O)O)cnc23)cccc1-c1cccc2c1CCN2CCCN1CCOCC1` (stereo not shown) [Compound 20, 1-((8-((2-methyl-3-(1-(3-morpholinopropyl)indolin-4-yl)phenyl)amino)-1,7-naphthyridin-3-yl)methyl)piperidine-2-carboxylic acid] showed a negative logarithm of the IC50 (pIC50) below 6.82.

Still in this assay, the particulars now being: HTRF, recombinant human PD-1 (Fc tag) / PD-L1 (His-tag), 25° C., PBS pH 7.4; read-out: IC50.
Regarding `Cc1c(Nc2nccc3cc(CN4CC(O)CC4C(=O)O)cnc23)cccc1-c1cccc(OCCCN2CCOCC2)c1C` (stereo not shown) [Compound 6, 1-((8-((2,2′-dimethyl-3′-(3-morpholinopropoxy)-[1,1′-biphenyl]-3-yl)amino)-1,7-naphthyridin-3-yl)methyl)-4-hydroxypyrrolidine-2-carboxylic acid], the negative-log IC50 (pIC50) is 8.55.

Regarding `Cc1c(Nc2nccc3cc(CNCCC(=O)O)cnc23)cccc1-c1cccc(OCCCN2CCOCC2)c1C` [Compound 7, 3-(((8-((2,2′-dimethyl-3′-(3-morpholinopropoxy)-[1,1′-biphenyl]-3-yl)amino)-1,7-naphthyridin-3-yl)methyl)amino)propanoic acid], the pIC50 was 9.40.

In the case of `Cc1c(Nc2nccc3cc(CN4CCC[C@H]4C(=O)O)cnc23)cccc1-c1ccccc1` [Compound 4, ((8-((2-methyl-[1,1′-biphenyl]-3-yl)amino)-1,7-naphthyridin-3-yl)methyl)proline], the pIC50 was 7.89.

Still in this assay, the particulars now being: R is the group comprising morpholine.
In the case of `Cc1c(Nc2nccc3cc(CN4CCCCC4C(=O)O)cnc23)cccc1-c1cccc(OCCCN2CCOCC2)c1C` (stereo not shown) [Compound 5], the “biological activity (potency), as shown in Table 1” value is “much more potent”.
